Patent US7247712B2, “Complex of hepatitis B virus-specific antigenic peptides associated with heat shock proteins and the application thereof” (priority 2000, dated 2007)
Entries after “also recorded” stand apart in the source; their conditions may differ.

B1: 7-mer peptide YVNVNMG (HBV core protein 88-94) (peptide)
peptide: YVNVNMG
notes: Printed as the alternative to YVNTNMG
B2: 7-mer peptide YVNTNMG (HBV core protein 88-94) (peptide)
peptide: YVNTNMG
notes: Eluted from tissue gp96 and also synthesized

Tests used:
BALB/cJ mice (H-2d) = assay: Immunization in mice followed by cytotoxicity (CTL) analysis, standard 4-h 51Cr release assay; assay type: in vivo
Description: FIG. 1. Specific CTL response of BALB/cJ(H-2^d) mice after immunized with 7-mer peptied and gp96-7 mer peptide complex seven days. The lysis percentage of effector cells to specific target cells was measurated in a standard 4-h ^51Cr release assay. The lysis percent rate of the figure is the mean percentage of 10 mice.
BALB/cJ mice (H-2^d) 12-16 weeks old were used in this studies.
Sample was solubilized in 100 μl PBS and was injected subcutaneously in the neck back area of each mouse.
Therefore, we adopted the immunological manner of subcutaneous injection. The 7-mer peptide was dissolved in buffer (90% PBS, 10% DMSO/0.1% TFA) and gp96-7 mer peptide complex was dissolved in PBS buffer and then shaked severely for 1 minute before injection. For each mouse, the immunization dosage of 7-mer peptide was 0.2 nmol, 2 nmol and 20 nmol, respectively, the mice were immunized with peptide and Freund's after emulsion. The immunization dosage of gp96-7 mer peptide complex was 0.01 nmol, 0.05 nmol, 0.10 nmol and 0.50 nmol, respectively, the mice were immunized with subcutaneous injection in neck back area, and the second enhanced immunization was performed after one week from the first immunization, then cytotoxicity analysis was performed after 7 days. Each treatment group consisted of 10 mice. […]

[1] = target: T1, gp96 protein purified from human liver tissues (human, UniProt P14625 22-803); assay: non-covalently bound peptides eluted with TFA from gp96 purified from HBV-infected liver cancer tissues, HPLC peak, MALDI-TOF, microsequencing
T1 construct: Native protein from tissue, over 95% purity; also called purified gp96 protein
T1 sequence (P14625 22-803 limits assumed): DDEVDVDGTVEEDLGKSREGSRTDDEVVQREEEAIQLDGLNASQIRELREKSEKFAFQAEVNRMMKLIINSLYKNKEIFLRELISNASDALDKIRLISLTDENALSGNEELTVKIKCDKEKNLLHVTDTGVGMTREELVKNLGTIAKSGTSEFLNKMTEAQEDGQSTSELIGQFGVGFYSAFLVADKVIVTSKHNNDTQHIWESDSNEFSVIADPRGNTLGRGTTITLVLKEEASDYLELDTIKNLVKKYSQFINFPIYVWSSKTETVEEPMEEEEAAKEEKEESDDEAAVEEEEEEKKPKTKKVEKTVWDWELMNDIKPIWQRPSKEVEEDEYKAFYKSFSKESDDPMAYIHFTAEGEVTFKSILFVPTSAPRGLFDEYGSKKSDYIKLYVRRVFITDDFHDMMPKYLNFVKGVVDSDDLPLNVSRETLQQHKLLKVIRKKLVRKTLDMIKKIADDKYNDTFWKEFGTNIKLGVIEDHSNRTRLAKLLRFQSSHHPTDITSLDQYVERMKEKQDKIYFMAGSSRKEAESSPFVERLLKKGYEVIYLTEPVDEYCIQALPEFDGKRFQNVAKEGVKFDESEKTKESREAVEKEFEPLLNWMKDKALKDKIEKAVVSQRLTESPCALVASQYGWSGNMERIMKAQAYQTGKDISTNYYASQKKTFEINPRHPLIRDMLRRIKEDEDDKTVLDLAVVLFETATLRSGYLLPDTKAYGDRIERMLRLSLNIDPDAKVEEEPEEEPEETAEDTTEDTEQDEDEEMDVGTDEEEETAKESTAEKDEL

Molecule | effect of adjuvant on immunogenicity (BALB/cJ mice (H-2d); Freund's incomplete adjuvant, Freund's complete adjuvant, chromium alum) | specific cytotoxic T lymphocyte (CTL) response in mice after immunization (BALB/cJ mice (H-2d); subcutaneous immunization, 51Cr release assay) | binding result [1]
YVNTNMG [7-mer peptide, 7-mer peptide “YVNTNMG or YVNVNMG”, amino acid residues 88-94 of the core protein of HBV] | can improve the immunological activity of it significantly | can elicit the specific CTL response in mice; also recorded: can elicit the specific cytotoxic T lymphocytes in mice | 
B1 |  |  | binds
B2 |  |  | binds
